For the experiment, the target named is T1, glycogen phosphorylase (from rabbit muscle, Sigma P1261) (Oryctolagus cuniculus, UniProt P00489).
T1 construct: glycogen phosphorylase (from rabbit muscle, Sigma P1261); purchased Sigma P1261; host or cells: rabbit muscle (tissue-derived)
T1 sequence (P00489 2-843 limits assumed): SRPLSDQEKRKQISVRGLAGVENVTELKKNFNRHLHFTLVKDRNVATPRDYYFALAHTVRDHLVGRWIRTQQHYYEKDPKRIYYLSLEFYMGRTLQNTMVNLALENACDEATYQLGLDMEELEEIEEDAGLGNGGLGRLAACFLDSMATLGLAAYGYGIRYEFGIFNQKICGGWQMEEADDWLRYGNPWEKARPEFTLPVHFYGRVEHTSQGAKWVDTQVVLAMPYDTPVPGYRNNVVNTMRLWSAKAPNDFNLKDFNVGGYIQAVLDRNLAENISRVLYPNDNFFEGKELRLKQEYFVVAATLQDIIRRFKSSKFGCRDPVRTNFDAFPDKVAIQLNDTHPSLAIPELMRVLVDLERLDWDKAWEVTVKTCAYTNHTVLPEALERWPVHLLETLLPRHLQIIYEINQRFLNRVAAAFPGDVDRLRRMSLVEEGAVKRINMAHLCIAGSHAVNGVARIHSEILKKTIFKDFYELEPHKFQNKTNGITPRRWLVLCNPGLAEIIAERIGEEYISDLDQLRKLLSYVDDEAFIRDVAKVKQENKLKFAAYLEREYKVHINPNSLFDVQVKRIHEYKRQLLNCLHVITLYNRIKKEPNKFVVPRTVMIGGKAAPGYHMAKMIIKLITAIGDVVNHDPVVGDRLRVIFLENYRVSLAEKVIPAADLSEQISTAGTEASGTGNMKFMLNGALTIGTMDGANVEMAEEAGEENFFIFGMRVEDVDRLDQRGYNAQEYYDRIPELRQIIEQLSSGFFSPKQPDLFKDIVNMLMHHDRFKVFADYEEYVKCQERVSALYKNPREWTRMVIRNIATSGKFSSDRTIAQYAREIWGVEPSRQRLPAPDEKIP
Kind of experiment: Enzyme Inhibition Assay (malachite green phosphate readout). It counts as biochemical. The note with it: for IC50: +/−.05; for inhibition at 20 µM: @ 20 μM test compound, percent inhibition (±10%) of enzymatic activity. As to the method: All samples contain 2% DMSO, and the background lacks enzyme but contains all substrates. The reaction was stopped by the addition of […] of a 1N HCl solution containing 10 mg/ml ammonium molybdate and 0.38 mg/ml malachite green. After a 15-minute incubation period to allow the colored reaction (a quantitative measurement of inorganic phosphate) to develop, the colored wells were read at 650 nm. Data was reported as percent inhibition (±10%) of enzymatic activity at a specified concentration.

What is called IC50 is the midpoint of a concentration-inhibition curve. Broadly, the inhibition is the drop in the measured response relative to a control, in per cent.

Compound `Cn1c(=O)c(Nc2ccc(C(=O)Nc3ccno3)cc2)nc2ccccc21` [Compound 7, N-Isoxazol-5-yl-4-(4-Methyl-3-oxo-3,4-dihydro-quinoxalin-2ylamino)-benzamide] showed an IC50 of 120 nM and an inhibition at 20 µM of 92%. Taken in the same sequence, the figures for `Cn1ccc(NC(=O)c2ccc(Nc3nc4ccccc4n(C)c3=O)cc2)n1` [Compound 8] were 890 nM and 95%. `Cn1c(=O)c(Nc2ccc(C(=O)Nc3ccsc3)cc2)nc2ccccc21` [Compound 9, 4-(4-Methyl-3-oxo-3,4-dihydro-quinoxalin-2ylamino)-N-thiophen-3-yl-benzamide]: the IC50 is 710 nM and at 20 µM the inhibition was 93%. The matching figures for `Cn1c(=O)c(Nc2ccc(C(=O)Nc3cnccn3)cc2)nc2ccccc21` [Compound 12, 4-(4-Methyl-3-oxo-3,4-dihydro-quinoxalin-2ylamino)-N-pyrazin-2-yl-benzamide]: 1300 nM and 68%.

On to `Cn1c(=O)c(Nc2ccc(NC(=O)c3cccnc3)cc2)nc2ccccc21` [Compound 16, N-[4-(4-Methyl-3-oxo-3,4-dihydro-quinoxalin-2ylamino)-phenyl]-nicotinamide], for which the IC50 came out at 800 nM and the inhibition at 20 µM was determined as 97%. `Cn1c(=O)c(Nc2ccc(NC(=O)c3cccs3)cc2)nc2ccccc21` [Compound 17, Thiophene-2-carboxylic acid[4-(4-Methyl-3-oxo-3,4-dihydro-quinoxalin-2ylamino)-phenyl]-amide]: the IC50 was found to be 1500 nM and at 20 µM the inhibition was 70%.

`Cn1c(=O)c(Nc2ccc(NC(=O)c3ccco3)cc2)nc2ccccc21` [Compound 18, Furan-2-carboxylic acid[4-(4-Methyl-3-oxo-3,4-dihydro-quinoxalin-2ylamino)-phenyl]-amide] registered an IC50 of 2500 nM and an inhibition at 20 µM of 80%.

In the case of `Cn1cccc1C(=O)Nc1ccc(Nc2nc3ccccc3n(C)c2=O)cc1` [Compound 19, 1-Methyl-1H-pyrrole-2-carboxylic acid[4-(4-Methyl-3-oxo-3,4-dihydro-quinoxalin-2ylamino)-phenyl]-amide], the IC50 amounted to 5000 nM and the inhibition at 20 µM is 77%. Turning to `Cn1c(=O)c(Nc2ccc(-c3ccc[nH]3)cc2)nc2ccccc21` [Compound 22, 1-Methyl-3-[4-(1H-pyrrol-2-yl)-phenylamino]-1H-quinoxalin-2-one], the IC50 is 2500 nM and testing at 20 µM gave an inhibition of 92%. Taken in the same sequence, the figures for `Cn1c(=O)c(Nc2ccc(-n3ccnc3)cc2)nc2ccccc21` [Compound 23, 3-(4-imidazol-1-yl-phenylamino)-1-methyl-1H-quinoxalin-2-one] were 2500 nM and 82%.

In turn, `CCn1c(=O)c(Nc2ccc(C(=O)Nc3ccon3)cc2)nc2ccccc21` [Compound 28, N-Isoxazol-3-yl-4-(4-Ethyl-3-oxo-3,4-dihydro-quinoxalin-2ylamino)-benzamide] showed an IC50 of 120 nM and an inhibition at 20 µM of 100%. The matching figures for `CCn1c(=O)c(Nc2ccc(C(=O)Nc3cc[nH]n3)cc2)nc2ccccc21` [Compound 29, 4-(4-Ethyl-3-oxo-3,4-dihydro-quinoxalin-2ylamino)-N-(1H-pyrazol-3-yl)-benzamide]: 460 nM and 100%.

`CCn1c(=O)c(Nc2ccc(C(=O)Nc3nccs3)cc2)nc2ccccc21` [Compound 30, 4-(4-Ethyl-3-oxo-3,4-dihydro-quinoxalin-2ylamino)-N-thiazol-2-yl-benzamide] returned an IC50 of 830 nM and an inhibition at 20 µM of 90%. The matching figures for `Cn1c(=O)c(Nc2ccc(C(=O)Nc3ccon3)cc2)nc2cccnc21` [Compound 36, N-Isoxazol-3-yl-4-(4-Methyl-3-oxo-3,4-dihydro-pyrido[2,3-b]pyrazin-2-ylamino)-benzamide]: 320 nM and 96%.

`O=C(NCc1cccs1)c1ccc(Nc2nc3ccccc3n(CCO)c2=O)cc1` [Compound 51] came in with an IC50 of 300 nM and an inhibition at 20 µM of 99%. Taken in the same sequence, the figures for `O=C(Nc1ccon1)c1ccc(Nc2nc3ccccc3n(CCN3CCOCC3)c2=O)cc1` [Compound 55, N-Isoxazol-3-yl-4-[4-(2-Morpholin-4-yl-ethyl)-3-oxo-3,4-dihydro-quinoxalin-2ylamino]-bezamide] were 260 nM and 97%. The matching figures for `COC(=O)c1ccc(Nc2nc3ccccc3n(CCN3CCOCC3)c2=O)cc1` [Compound 57]: 1800 nM and 89%. `O=C(NCc1cccs1)c1ccc(Nc2nc3ccccc3n(CCN3CCCCC3)c2=O)cc1` [Compound 62] showed an inhibition at 20 µM of 95%. In the case of `CN(C)CCn1c(=O)c(Nc2ccc(C(=O)NCc3cccs3)cc2)nc2ccccc21` [Compound 70], the IC50 turned out to be 700 nM and the inhibition at 20 µM is 99%. As for `O=C(O)Cn1c(=O)c(Nc2ccc(C(=O)NCc3cccs3)cc2)nc2ccccc21` [Compound 75, (2-Oxo-3-{4-[(thiophen-2ylmethyl)-carbamoyl]-phenylamino}-2H-quinoxalin-1-yl)-acetic acid], the midpoint of inhibition, the IC50, lay at 5700 nM and the inhibition at 20 µM was 77%. On to `Cn1c(=O)c(Nc2ccc(C(=O)NCc3ccccc3)cc2)nc2ccccc21` [Compound 78, N-Benzyl-4-(4-Methyl-3-oxo-3,4-dihydro-quinoxalin-2ylamino)-benzamide], for which the IC50 was 690 nM and the inhibition at 20 µM came to 96%.

(Values after patent US20050148586A1 (priority 2004, published 2005).)
